Earlier results in publication PMC12281572.
Values joined by “and” are separate entries in the source; they are usually repeats but may differ in a detail not shown here. Identical values can stand only once.

test: FTIR, 4-fluorophenol as donor (the pK_BHX database, per the paper); details: CCl4; 25 C

Going from `CN(C)C(=S)c1ccccc1` to `CC(=O)N(C)c1ccccc1`, the “pK_BHX (log10 Kf of the 1:1 H-bond complex with 4-fluorophenol, by FTIR)” value rises from 1.02 log units to 2.19 log units.

First: CC(C)C(=O)C(C)C
Second: CC(C)c1cc(C(C)C)cc(C(C)C)c1
The “pK_BHX (log10 Kf of the 1:1 H-bond complex with 4-fluorophenol, by FTIR)” value of the first is higher: 1.08 log units for the first, -0.18 log units for the second.

Compared with `NCC(F)(F)F`, `CN(C)Cc1cccc(C(F)(F)F)c1` is higher in “pK_BHX (log10 Kf of the 1:1 H-bond complex with 4-fluorophenol, by FTIR)” value: 0.71 log units for the first, 1.16 log units for the second.

Going from `CCN(CC)c1ccc(N=O)cc1` to `CCOC(=O)c1ccc(N(C)C)cc1`, the “pK_BHX (log10 Kf of the 1:1 H-bond complex with 4-fluorophenol, by FTIR)” value rises from 1.33 log units to 1.45 log units.

Going from `NC1CCCCC1` to `ClC1CCCCC1`, the “pK_BHX (log10 Kf of the 1:1 H-bond complex with 4-fluorophenol, by FTIR)” value falls from 2.29 log units to -0.27 log units.

First: FC12CC3CC(CC(C3)C1)C2
Second: C1CSCCS1
The “pK_BHX (log10 Kf of the 1:1 H-bond complex with 4-fluorophenol, by FTIR)” value of the first is higher: 0.31 log units for the first, -0.14 log units for the second.

First: Ic1ccccc1
Second: O=c1cccccc1
The “pK_BHX (log10 Kf of the 1:1 H-bond complex with 4-fluorophenol, by FTIR)” value of the first is lower: -0.64 log units for the first, 1.97 log units for the second.

First: C=CCN(CC=C)CC=C
Second: C=CCNCC=C
The “pK_BHX (log10 Kf of the 1:1 H-bond complex with 4-fluorophenol, by FTIR)” value of the first is lower: 1.34 log units for the first, 1.7 log units for the second.

First: Cc1cc(C)ncn1
Second: Cc1cnc(C)cn1
The “pK_BHX (log10 Kf of the 1:1 H-bond complex with 4-fluorophenol, by FTIR)” value of the first is higher: 1.47 log units for the first, 1.29 log units for the second.

Compared with `Cc1ccc(N=C(c2ccccc2)N(C)c2ccccc2)cc1`, `Cc1ccc(N=C(c2ccccc2)N(C)c2ccc(Br)cc2)cc1` is lower in “pK_BHX (log10 Kf of the 1:1 H-bond complex with 4-fluorophenol, by FTIR)” value: 1.52 log units for the first, 1.42 log units for the second.

First: CNCc1ccccc1
Second: c1ccc(C2CCCN2)cc1 (centres unmarked)
The “pK_BHX (log10 Kf of the 1:1 H-bond complex with 4-fluorophenol, by FTIR)” value of the first is lower: 1.82 log units for the first, 1.93 log units for the second.

Compared with `CN(C)C(=S)N(C)C`, `CN(C)C=NC(=S)N(C)C` is higher in “pK_BHX (log10 Kf of the 1:1 H-bond complex with 4-fluorophenol, by FTIR)” value: 1.35 log units for the first, 1.79 log units for the second.

First: CC(=O)c1ccc(N2CCOCC2)cc1
Second: CN(C)C(=O)c1ccc(F)cc1
The “pK_BHX (log10 Kf of the 1:1 H-bond complex with 4-fluorophenol, by FTIR)” value of the first is lower: 1.61 log units for the first, 2.14 log units for the second.

Compared with `CCCCC(=O)CCCC`, `C=CCCCCC` is lower in “pK_BHX (log10 Kf of the 1:1 H-bond complex with 4-fluorophenol, by FTIR)” value: 1.21 log units for the first, -0.67 log units for the second.

First: C#CCN(C)C
Second: CC(=NC#N)N(C)C
The “pK_BHX (log10 Kf of the 1:1 H-bond complex with 4-fluorophenol, by FTIR)” value of the first is lower: 1.6 log units for the first, 2.24 log units for the second.

First: Cc1ccncc1C
Second: Cc1cccc(C)n1
The “pK_BHX (log10 Kf of the 1:1 H-bond complex with 4-fluorophenol, by FTIR)” value of the first is higher: 2.24 log units for the first, 2.14 log units for the second.

First: N#CN1CCCCC1
Second: O=CN1CCCC1
The “pK_BHX (log10 Kf of the 1:1 H-bond complex with 4-fluorophenol, by FTIR)” value of the first is lower: 1.58 log units for the first, 2.31 log units for the second.

`CCN(C(=O)N(CC)c1ccccc1)c1ccccc1` and `CCN(CC(=O)N(CC)c1ccccc1)c1ccccc1` are the same in “pK_BHX (log10 Kf of the 1:1 H-bond complex with 4-fluorophenol, by FTIR)” value: 2.16 log units for the first, 2.16 log units for the second.

First: CC(=O)C(C)=O
Second: CC(C)(C)C(=O)C(C)(C)C
The “pK_BHX (log10 Kf of the 1:1 H-bond complex with 4-fluorophenol, by FTIR)” value of the first is lower: 0.23 log units for the first, 0.96 log units for the second.

Going from `CCOC(=O)c1cccc(C)c1` to `CCOC(=O)c1ccc(F)cc1`, the “pK_BHX (log10 Kf of the 1:1 H-bond complex with 4-fluorophenol, by FTIR)” value falls from 1.01 log units to 0.88 log units.

Compared with `Clc1ccc(N=CNc2ccc(Cl)cc2)cc1`, `Cc1ccc(N=CNc2ccc(C)cc2)cc1` is higher in “pK_BHX (log10 Kf of the 1:1 H-bond complex with 4-fluorophenol, by FTIR)” value: 1.63 log units for the first, 2.22 log units for the second.

Going from `O=C1c2ccccc2-c2ccccc21` to `CC(C)(C)C(=O)N(c1ccccc1)c1ccccc1`, the “pK_BHX (log10 Kf of the 1:1 H-bond complex with 4-fluorophenol, by FTIR)” value rises from 1.09 log units to 1.64 log units.

First: CC(C)(C)c1cccc(C(C)(C)C)n1
Second: CC(C)(C)c1ccccn1
The “pK_BHX (log10 Kf of the 1:1 H-bond complex with 4-fluorophenol, by FTIR)” value of the first is lower: -0.54 log units for the first, 1.42 log units for the second.

Compared with `CCCCSC`, `CCCCCl` is lower in “pK_BHX (log10 Kf of the 1:1 H-bond complex with 4-fluorophenol, by FTIR)” value: 0.17 log units for the first, -0.41 log units for the second.

First: Cc1cccc(CN)c1
Second: CN(C)C=NCc1cccc(C(F)(F)F)c1
The “pK_BHX (log10 Kf of the 1:1 H-bond complex with 4-fluorophenol, by FTIR)” value of the first is lower: 1.97 log units for the first, 1.99 log units for the second.

First: [O-][n+]1ccccc1
Second: N#Cc1ccccc1Br
The “pK_BHX (log10 Kf of the 1:1 H-bond complex with 4-fluorophenol, by FTIR)” value of the first is higher: 2.72 log units for the first, 0.71 log units for the second.

Going from `CN1CN(C)CN(C)C1` to `C1N2CN3CN1CN(C2)C3`, the “pK_BHX (log10 Kf of the 1:1 H-bond complex with 4-fluorophenol, by FTIR)” value falls from 1.58 log units to 1.33 log units.

Compared with `N#Cc1cc(Cl)cc(Cl)c1`, `O=S(c1ccc(Cl)cc1)c1ccc(Cl)cc1` is higher in “pK_BHX (log10 Kf of the 1:1 H-bond complex with 4-fluorophenol, by FTIR)” value: 0.52 log units for the first, 1.68 log units for the second.

Going from `Clc1cccc(N=C(Nc2ccccc2)c2ccccc2)c1` to `COc1ccc(C(=O)N(c2ccccc2)c2ccccc2)cc1`, the “pK_BHX (log10 Kf of the 1:1 H-bond complex with 4-fluorophenol, by FTIR)” value rises from 1.05 log units to 1.67 log units.

Going from `C1COCO1` to `C1COCCOCCOCCO1`, the “pK_BHX (log10 Kf of the 1:1 H-bond complex with 4-fluorophenol, by FTIR)” value rises from 0.45 log units to 1.13 log units.

First: c1cscn1
Second: CN(C)c1ccc(Br)cc1
The “pK_BHX (log10 Kf of the 1:1 H-bond complex with 4-fluorophenol, by FTIR)” value of the first is higher: 1.37 log units for the first, 0.17 log units for the second.

Going from `Cc1cc(C)nc(C)c1` to `CCOC(=O)N(CC)CC`, the “pK_BHX (log10 Kf of the 1:1 H-bond complex with 4-fluorophenol, by FTIR)” value falls from 2.29 log units to 1.95 log units.

Going from `N` to `O=S1(=O)CCCC1`, the “pK_BHX (log10 Kf of the 1:1 H-bond complex with 4-fluorophenol, by FTIR)” value falls from 1.74 log units to 1.17 log units.

Going from `CCCCCCCCN(CCCCCCCC)CCCCCCCC` to `COC(OC)(OC)OC`, the “pK_BHX (log10 Kf of the 1:1 H-bond complex with 4-fluorophenol, by FTIR)” value falls from 1.57 log units to 0.26 log units.

Compared with `CC(=O)N(C1CCCCC1)C1CCCCC1`, `COC(=O)C1CC1` is lower in “pK_BHX (log10 Kf of the 1:1 H-bond complex with 4-fluorophenol, by FTIR)” value: 2.41 log units for the first, 1.12 log units for the second.

In the case of `CC(=O)c1ccc([N+](=O)[O-])cc1`, the “pK_BHX (log10 Kf of the 1:1 H-bond complex with 4-fluorophenol, by FTIR)” value is listed as 0.57 log units and 0.15 log units.
